Measurements as given in the supplement of paper PMC10307832.

Tests used:
Experiment in all cases: relative viability (nuclei count vs DMSO), 5 days (fraction); higher = more cells survive
[1] = compound: C1/C(=C\C2=CC=CS2)/C(=O)/C(=C/C3=CC=CS3)/C1 + O=C(CCCCCCC(=O)Nc1ccccc1)NO [Vorinostat] (partner 1 µM)
Method in brief: (§1)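 Lung cancer cell lines in 1536-well plates got either a single drug or a fixed anchor-drug dose together with five library-drug doses (not always all listed) in √10 steps, by pin tool, on the day after seeding. Nuclei were counted after 5 days, and relative viability is the treated-to-vehicle ratio of nuclei counts. Values are medians of duplicate plates.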

[2] = compound: C1/C(=C\C2=CC=CS2)/C(=O)/C(=C/C3=CC=CS3)/C1 + COc1cccc2cc(-c3nc([C@H]4CC[C@H](C(=O)O)CC4)n4ncnc(N)c34)[nH]c12 [OSI-027] (partner 0.5 µM)
Method in brief: as §1

[3] = compound: C1/C(=C\C2=CC=CS2)/C(=O)/C(=C/C3=CC=CS3)/C1 + Nc1nc2[nH]cc(CCc3ccc(C(=O)N[C@@H](CCC(=O)O)C(=O)O)cc3)c2c(=O)[nH]1 [Pemetrexed] (partner 0.2 µM)
Method in brief: as §1

TPCA-1 + Pictilisib = compound: C1=CC(=CC=C1C2=CC(=C(S2)NC(=O)N)C(=O)N)F [TPCA-1] + CS(=O)(=O)N1CCN(Cc2cc3nc(-c4cccc5[nH]ncc45)nc(N4CCOCC4)c3s2)CC1 [Pictilisib] (partner 1 µM)
Method in brief: as §1

NCI-H2347
relative viability ([1]; first compound 0.2 µM): 0.627 | relative viability ([1]; first compound 0.6325 µM): 0.561 | relative viability ([1]; first compound 2 µM): 0.601 | relative viability ([1]; first compound 6.325 µM): 0.61 | relative viability ([1]; first compound 20 µM): 0.667 | relative viability ([2]; first compound 0.2 µM): 0.482 | relative viability ([2]; first compound 0.6325 µM): 0.391 | relative viability ([2]; first compound 2 µM): 0.429 | relative viability ([2]; first compound 20 µM): 0.389 | relative viability ([3]; first compound 0.2 µM): 0.44 | relative viability ([3]; first compound 0.6325 µM): 0.429 | relative viability ([3]; first compound 2 µM): 0.478 | relative viability ([3]; first compound 6.325 µM): 0.448 | relative viability ([3]; first compound 20 µM): 0.426 | relative viability (TPCA-1 + Pictilisib; first compound 0.04 µM): 0.588 | relative viability (TPCA-1 + Pictilisib; first compound 0.1265 µM): 0.568 | relative viability (TPCA-1 + Pictilisib; first compound 0.4 µM): 0.901 | relative viability (TPCA-1 + Pictilisib; first compound 1.265 µM): 0.806 | relative viability (TPCA-1 + Pictilisib; first compound 4 µM): 0.31

NCI-H2405
relative viability ([1]; first compound 0.2 µM): 0.991 | relative viability ([1]; first compound 0.6325 µM): 1.02 | relative viability ([1]; first compound 2 µM): 1.08 | relative viability ([1]; first compound 6.325 µM): 0.876 | relative viability ([1]; first compound 20 µM): 1.14 | relative viability ([2]; first compound 0.2 µM): 0.619 | relative viability ([2]; first compound 0.6325 µM): 0.633 | relative viability ([2]; first compound 2 µM): 0.705 | relative viability ([2]; first compound 6.325 µM): 0.497 | relative viability ([2]; first compound 20 µM): 0.624 | relative viability ([3]; first compound 0.2 µM): 1.08 | relative viability ([3]; first compound 0.6325 µM): 0.96 | relative viability ([3]; first compound 2 µM): 1.2 | relative viability ([3]; first compound 6.325 µM): 1.01 | relative viability ([3]; first compound 20 µM): 1.04 | relative viability (TPCA-1 + Pictilisib; first compound 0.04 µM): 0.487 | relative viability (TPCA-1 + Pictilisib; first compound 0.1265 µM): 0.353 | relative viability (TPCA-1 + Pictilisib; first compound 0.4 µM): 0.493 | relative viability (TPCA-1 + Pictilisib; first compound 4 µM): 0.364

NCI-H3122
relative viability ([1]; first compound 0.2 µM): 1.08 | relative viability ([1]; first compound 0.6325 µM): 1.08 | relative viability ([1]; first compound 2 µM): 0.907 | relative viability ([1]; first compound 6.325 µM): 0.639 | relative viability ([1]; first compound 20 µM): 0.708 | relative viability ([2]; first compound 0.2 µM): 1.17 | relative viability ([2]; first compound 0.6325 µM): 0.956 | relative viability ([2]; first compound 2 µM): 1 | relative viability ([2]; first compound 6.325 µM): 0.889 | relative viability ([2]; first compound 20 µM): 1.01 | relative viability ([3]; first compound 0.2 µM): 0.195 | relative viability ([3]; first compound 0.6325 µM): 0.213 | relative viability ([3]; first compound 2 µM): 0.206 | relative viability ([3]; first compound 6.325 µM): 0.191 | relative viability ([3]; first compound 20 µM): 0.206 | relative viability (TPCA-1 + Pictilisib; first compound 0.04 µM): 0.725 | relative viability (TPCA-1 + Pictilisib; first compound 0.1265 µM): 0.511 | relative viability (TPCA-1 + Pictilisib; first compound 0.4 µM): 0.603 | relative viability (TPCA-1 + Pictilisib; first compound 1.265 µM): 0.612 | relative viability (TPCA-1 + Pictilisib; first compound 4 µM): 0.595

PC-3 [JPC-3]
relative viability ([1]; first compound 0.6325 µM): 0.985 | relative viability ([1]; first compound 2 µM): 0.954 | relative viability ([1]; first compound 6.325 µM): 0.74 | relative viability ([1]; first compound 20 µM): 1.03 | relative viability ([2]; first compound 0.2 µM): 0.774 | relative viability ([2]; first compound 0.6325 µM): 0.715 | relative viability ([2]; first compound 2 µM): 0.719 | relative viability ([2]; first compound 6.325 µM): 0.552 | relative viability ([2]; first compound 20 µM): 0.778 | relative viability ([3]; first compound 0.6325 µM): 1.15 | relative viability ([3]; first compound 2 µM): 0.982 | relative viability ([3]; first compound 6.325 µM): 1.04 | relative viability ([3]; first compound 20 µM): 1.26 | relative viability (TPCA-1 + Pictilisib; first compound 0.04 µM): 0.8 | relative viability (TPCA-1 + Pictilisib; first compound 0.1265 µM): 0.714 | relative viability (TPCA-1 + Pictilisib; first compound 0.4 µM): 0.81 | relative viability (TPCA-1 + Pictilisib; first compound 1.265 µM): 0.746 | relative viability (TPCA-1 + Pictilisib; first compound 4 µM): 0.612

PC-14
relative viability ([1]; first compound 0.2 µM): 0.855 | relative viability ([1]; first compound 0.6325 µM): 0.809 | relative viability ([1]; first compound 2 µM): 0.843 | relative viability ([1]; first compound 6.325 µM): 0.614 | relative viability ([1]; first compound 20 µM): 0.687 | relative viability ([2]; first compound 0.2 µM): 0.916 | relative viability ([2]; first compound 0.6325 µM): 0.854 | relative viability ([2]; first compound 2 µM): 0.805 | relative viability ([2]; first compound 6.325 µM): 0.749 | relative viability ([2]; first compound 20 µM): 0.766 | relative viability ([3]; first compound 0.2 µM): 0.145 | relative viability ([3]; first compound 0.6325 µM): 0.166 | relative viability ([3]; first compound 2 µM): 0.136 | relative viability ([3]; first compound 6.325 µM): 0.131 | relative viability ([3]; first compound 20 µM): 0.142 | relative viability (TPCA-1 + Pictilisib; first compound 0.04 µM): 0.847 | relative viability (TPCA-1 + Pictilisib; first compound 0.1265 µM): 0.605 | relative viability (TPCA-1 + Pictilisib; first compound 0.4 µM): 0.526 | relative viability (TPCA-1 + Pictilisib; first compound 1.265 µM): 0.499 | relative viability (TPCA-1 + Pictilisib; first compound 4 µM): 0.322

RERF-LC-KJ
relative viability ([1]; first compound 0.2 µM): 0.735 | relative viability ([1]; first compound 0.6325 µM): 0.723 | relative viability ([1]; first compound 2 µM): 0.713 | relative viability ([1]; first compound 6.325 µM): 0.645 | relative viability ([1]; first compound 20 µM): 0.675 | relative viability ([2]; first compound 0.2 µM): 0.528 | relative viability ([2]; first compound 0.6325 µM): 0.659 | relative viability ([2]; first compound 2 µM): 0.71 | relative viability ([2]; first compound 6.325 µM): 0.539 | relative viability ([2]; first compound 20 µM): 0.545 | relative viability ([3]; first compound 0.2 µM): 0.474 | relative viability ([3]; first compound 0.6325 µM): 0.49 | relative viability ([3]; first compound 2 µM): 0.473 | relative viability ([3]; first compound 6.325 µM): 0.449 | relative viability ([3]; first compound 20 µM): 0.511 | relative viability (TPCA-1 + Pictilisib; first compound 0.04 µM): 0.533 | relative viability (TPCA-1 + Pictilisib; first compound 0.1265 µM): 0.493 | relative viability (TPCA-1 + Pictilisib; first compound 0.4 µM): 0.561 | relative viability (TPCA-1 + Pictilisib; first compound 1.265 µM): 0.44 | relative viability (TPCA-1 + Pictilisib; first compound 4 µM): 0.466

SK-LU-1
relative viability ([1]; first compound 0.2 µM): 0.849 | relative viability ([1]; first compound 0.6325 µM): 0.764 | relative viability ([1]; first compound 2 µM): 0.75 | relative viability ([1]; first compound 6.325 µM): 0.677 | relative viability ([1]; first compound 20 µM): 0.774 | relative viability ([2]; first compound 0.2 µM): 0.36 | relative viability ([2]; first compound 0.6325 µM): 0.388 | relative viability ([2]; first compound 2 µM): 0.398 | relative viability ([2]; first compound 6.325 µM): 0.315 | relative viability ([2]; first compound 20 µM): 0.396 | relative viability ([3]; first compound 0.2 µM): 1.12 | relative viability ([3]; first compound 0.6325 µM): 1.03 | relative viability ([3]; first compound 2 µM): 0.942 | relative viability ([3]; first compound 6.325 µM): 0.829 | relative viability ([3]; first compound 20 µM): 1.02 | relative viability (TPCA-1 + Pictilisib; first compound 0.04 µM): 0.797 | relative viability (TPCA-1 + Pictilisib; first compound 0.1265 µM): 0.465 | relative viability (TPCA-1 + Pictilisib; first compound 0.4 µM): 0.44 | relative viability (TPCA-1 + Pictilisib; first compound 1.265 µM): 0.436 | relative viability (TPCA-1 + Pictilisib; first compound 4 µM): 0.317

SK-MES-1
relative viability ([1]; first compound 0.2 µM): 1.18 | relative viability ([1]; first compound 0.6325 µM): 1.13 | relative viability ([1]; first compound 2 µM): 1.1 | relative viability ([1]; first compound 6.325 µM): 0.985 | relative viability ([1]; first compound 20 µM): 1.11 | relative viability ([2]; first compound 0.2 µM): 0.598 | relative viability ([2]; first compound 0.6325 µM): 0.689 | relative viability ([2]; first compound 2 µM): 0.627 | relative viability ([2]; first compound 6.325 µM): 0.55 | relative viability ([2]; first compound 20 µM): 0.616 | relative viability ([3]; first compound 0.2 µM): 0.972 | relative viability ([3]; first compound 0.6325 µM): 0.959 | relative viability ([3]; first compound 2 µM): 0.949 | relative viability ([3]; first compound 6.325 µM): 0.752 | relative viability ([3]; first compound 20 µM): 0.988 | relative viability (TPCA-1 + Pictilisib; first compound 0.04 µM): 0.403 | relative viability (TPCA-1 + Pictilisib; first compound 0.1265 µM): 0.316 | relative viability (TPCA-1 + Pictilisib; first compound 0.4 µM): 0.305 | relative viability (TPCA-1 + Pictilisib; first compound 1.265 µM): 0.255 | relative viability (TPCA-1 + Pictilisib; first compound 4 µM): 0.276

SW 1573
relative viability ([1]; first compound 0.2 µM): 0.756 | relative viability ([1]; first compound 0.6325 µM): 0.971 | relative viability ([1]; first compound 2 µM): 0.89 | relative viability ([1]; first compound 6.325 µM): 0.721 | relative viability ([1]; first compound 20 µM): 0.808 | relative viability ([2]; first compound 0.2 µM): 0.603 | relative viability ([2]; first compound 0.6325 µM): 0.724 | relative viability ([2]; first compound 2 µM): 0.756 | relative viability ([2]; first compound 6.325 µM): 0.599 | relative viability ([2]; first compound 20 µM): 0.617 | relative viability ([3]; first compound 0.2 µM): 0.774 | relative viability ([3]; first compound 0.6325 µM): 0.845 | relative viability ([3]; first compound 2 µM): 0.869 | relative viability ([3]; first compound 6.325 µM): 0.546 | relative viability ([3]; first compound 20 µM): 0.856 | relative viability (TPCA-1 + Pictilisib; first compound 0.04 µM): 0.54 | relative viability (TPCA-1 + Pictilisib; first compound 0.1265 µM): 0.419 | relative viability (TPCA-1 + Pictilisib; first compound 0.4 µM): 0.506 | relative viability (TPCA-1 + Pictilisib; first compound 1.265 µM): 0.505 | relative viability (TPCA-1 + Pictilisib; first compound 4 µM): 0.495
